Key:
CD74 = test: Cell-based ELISA for constitutive CD74 expression; set-up: species or system human; settings: 48 h, NCI-N87 cells; for IR (%) inhibition rate of CD74 expression: mean ± average deviation; for IC50: mean of duplicate experiments, unit printed in b25 only, read-out: IC50 (50% inhibitory concentration) for constitutive CD74 expression
H. pylori urease = tested on: H. pylori urease; set-up: method as in PMID 14550260; settings: in vitro; cited from earlier work
[1] = tested on: H. pylori-induced gastritis; set-up: method as in PMID 14550260; settings: Mongolian gerbils; cited from earlier work
Cell viability (MTT) = settings: human
[2] = tested on: cytochrome P450 (CYP) 3A4; set-up: method as in PMID 9548795; settings: cited from earlier work
CYP1A1 = tested on: CYP1A1; set-up: method as in PMID 15670584; settings: cited from earlier work
MCF-7 cells = tested on: MCF-7 cells; set-up: method as in PMID 12641443; settings: induced by benzo[a]pyrene and 7,12-dimethylbenz[a]anthracene; cited from earlier work
skin tumors = tested on: skin tumors; set-up: method as in PMID 9276625; settings: mice; cited from earlier work
NO generation = tested on: NO generation; set-up: method as in PMID 10563895; settings: cited from earlier work
leukemia differentiation = tested on: leukemia differentiation; set-up: method as in PMID 10552768; settings: cited from earlier work
[3] = NCI-N87 gastric carcinoma cells

| SMILES | IR (%) inhibition rate of CD74 expression (CD74; 4 µM) [%] | IR (%) inhibition rate of CD74 expression (CD74; 20 µM) [%] | IR (%) inhibition rate of CD74 expression (CD74; 100 µM) [%] | Suppression of CD74 expression (in words) (CD74) | IC50 (CD74) [µM] | H. pylori urease activity (H. pylori urease) | H. pylori-induced gastritis [1] | CC50 at 48 h (Cell viability (MTT)) [µM] | viability at 48 h, 4 µM (Cell viability (MTT); [3]) [%] | viability at 48 h, 20 µM (Cell viability (MTT); [3]) [%] | viability at 48 h, 100 µM (Cell viability (MTT); [3]) [%] | IR (%) inhibition rate of CD74 expression (CD74; 20 µM, listed as bergamottin) [%] | Inhibition of cytochrome P450 (CYP) 3A4 [2] | Inhibition of CYP1A1 (CYP1A1) | Formation of DNA adducts (MCF-7 cells) | Skin tumors (skin tumors) | NO generation (NO generation) | Leukemia differentiation (leukemia differentiation) | CC50 at 48 h (Cell viability (MTT); [3]) [µM] |
| --- | --- | --- | --- | --- | --- | --- | --- | --- | --- | --- | --- | --- | --- | --- | --- | --- | --- | --- | --- |
| O=C(OC1Cc2c(O)cc(O)cc2OC1c1cc(O)c(O)c(O)c1)c1cc(O)c(O)c(O)c1 (single isomer, unassigned; (-)) [EGCG, (−)-epigallocatechin-3-gallate] | −110 ± 8.3 | −149 ± 3.8 | −217 ± 4.0 | did not suppress CD74 expression, but rather enhanced it | > 100 | strongly inhibited | suppressed | > 100 | 78 ± 6.3 | 77 ± 3.1 | 78 ± 5 |  |  |  |  |  |  |  |  |
| CC(C)=CCC/C(C)=C/COc1c2ccoc2cc2oc(=O)ccc12 [Bergamottin] | 8.6 ± 4.2 | 74 ± 8.2 |  | significant activity | 14.2 |  |  |  | 93 | 79 | 59 ± 2.1 | 74 | inhibit | inhibit | reduced | reduced | reduced | induced | > 100 |
